Measurements: US12649751B2 (Arcus Biosciences, Inc., priority 2022, dated 2026)

biological target: HPK1 (Homo sapiens, UniProt Q92918); assay: HPK1 Biochemical Assay (ADP-Glo luminescence; low ATP 10 μM or high ATP 200 μM); settings: 2 nM HPK1, 10 μM ATP; read-out: Biochemical Potency (low ATP)
Method: Dose-response assays were performed in Corning® Low Volume 384-well assay plates containing 100 nL of 22 serial 2-fold compound dilutions. Wells containing DMSO alone were used as negative control. A kinase mixture (5 μL) containing 2 nM HPK1 (or 5 nM for high ATP assay) in assay buffer (50 mM Hepes pH 7.4, 10 mM MgCl2, 0.01% Brij-15, 0.01% bovine serum albumin, and 1 mM dithiothreitol) was added to the assay plates and incubated at 25° C. for 1 hour. Wells without HPK1 were used as positive control. A […] of 10 μM ATP (or 200 μM for high ATP) and 0.2 μg/μL […] was then added to the wells, resulting in a 10 μL total reaction volume. Following incubation of the assay plates at 25° C. for 1 hour, 10 μL of ADP-Glo reagent was added to the wells and the plates were incubated at 25° C. for a further 40 minutes (or 1 hour for high ATP assay). Finally, 20 μL of Kinase Detection Reagent was added, and the plates were incubated for another 30 minutes at 25° C. An Envision plate reader was then used to detect the luminescence signals. IC50 values were determined by fitting the data to a standard 4-parameter logistic equation. The results are summarized in the Biochemical Potency columns of Tables 4 and 5 below (Biochemical Potency (high ATP); Biochemical Potency (low ATP)).

Sequence of HPK1 (Q92918 whole entry, species assumed): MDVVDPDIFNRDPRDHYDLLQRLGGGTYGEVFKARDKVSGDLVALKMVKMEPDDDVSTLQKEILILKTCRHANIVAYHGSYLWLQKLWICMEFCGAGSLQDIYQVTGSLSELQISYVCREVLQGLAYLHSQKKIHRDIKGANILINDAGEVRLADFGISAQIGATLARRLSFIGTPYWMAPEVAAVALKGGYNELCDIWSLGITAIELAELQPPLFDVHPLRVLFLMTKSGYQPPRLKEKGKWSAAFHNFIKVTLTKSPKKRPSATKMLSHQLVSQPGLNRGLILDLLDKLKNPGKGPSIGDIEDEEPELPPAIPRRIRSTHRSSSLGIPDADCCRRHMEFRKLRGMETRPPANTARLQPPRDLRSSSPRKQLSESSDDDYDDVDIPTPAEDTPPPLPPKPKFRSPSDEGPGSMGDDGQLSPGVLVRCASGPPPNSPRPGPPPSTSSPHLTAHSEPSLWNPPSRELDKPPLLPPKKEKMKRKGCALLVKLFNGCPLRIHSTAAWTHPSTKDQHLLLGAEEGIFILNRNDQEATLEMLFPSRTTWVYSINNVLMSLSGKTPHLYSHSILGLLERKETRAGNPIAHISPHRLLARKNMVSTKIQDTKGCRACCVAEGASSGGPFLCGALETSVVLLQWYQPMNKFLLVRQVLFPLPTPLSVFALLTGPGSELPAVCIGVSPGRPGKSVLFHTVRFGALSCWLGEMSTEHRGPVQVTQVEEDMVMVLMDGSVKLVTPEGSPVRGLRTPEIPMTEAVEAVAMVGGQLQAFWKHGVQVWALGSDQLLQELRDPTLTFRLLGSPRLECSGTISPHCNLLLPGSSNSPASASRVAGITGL

IC50 | Structure (SMILES)
< 100 nM | Cc1cccnc1-c1nc2cc(Nc3ccc(F)c(CN4CCCC4)n3)ncc2s1 [Example 61, 5-Fluoro-N-[2-(3-methylpyridin-2-yl)-[1,3]thiazolo[5,4-c]pyridin-6-yl]-6-[(pyrrolidin-1-yl)methyl]pyridin-2-amine]
< 100 nM | Cc1cccnc1-c1nc2cc(Nc3ccc(C4CCOCC4)c(C4CCNC4)n3)ncc2s1 (centres unmarked) [Example 283, N-[2-(3-Methylpyridin-2-yl)-[1,3]thiazolo[5,4-c]pyridin-6-yl]-5-(oxan-4-yl)-6-(pyrrolidin-3-yl)pyridin-2-amine]
< 100 nM | Fc1cccnc1-c1nc2cc(Nc3ccc(N4CCOCC4)c(CN4CCCC4)n3)ncc2s1 [Example 8, N-[2-(3-Fluoropyridin-2-yl)-[1,3]thiazolo[5,4-c]pyridin-6-yl]-5-(morpholin-4-yl)-6-[(pyrrolidin-1-yl)methyl]pyridin-2-amine]
< 100 nM | Cc1cccnc1-c1nc2cc(Nc3cnc(C)c(N4C[C@@H]5C[C@H]4CN5C)n3)ncc2s1 [Example 154, 5-Methyl-6-[(1S,4S)-5-methyl-2,5-diazabicyclo[2.2.1]heptan-2-yl]-N-[2-(3-methylpyridin-2-yl)-[1,3]thiazolo[5,4-c]pyridin-6-yl]pyrazin-2-amine]
< 100 nM | CN1C[C@@H]2C[C@H]1CN2c1cncc(Nc2cc3nc(-c4cccc(N5CCCC5=O)c4)sc3cn2)n1 [Example 143, 1-{3-[6-({6-[(1S,4S)-5-Methyl-2,5-diazabicyclo[2.2.1]heptan-2-yl]pyrazin-2-yl}amino)-[1,3]thiazolo[5,4-c]pyridin-2-yl]phenyl}pyrrolidin-2-one]
100 to 1000 nM | O[C@@H]1CCN(c2nc3cc(Nc4ccc(C5CCOCC5)c(CN5CCCC5)n4)ncc3s2)C1 [Example 234, (3R)-1-(6-{[5-(Oxan-4-yl)-6-[(pyrrolidin-1-yl)methyl]pyridin-2-yl]amino}-[1,3]thiazolo[5,4-c]pyridin-2-yl)pyrrolidin-3-ol]
< 100 nM | Cc1nccn1-c1nc2cc(Nc3ccc(C4CCOCC4)c(CN4CCCC4)n3)ncc2s1 [Example 239, N-[2-(2-Methyl-1H-imidazol-1-yl)-[1,3]thiazolo[5,4-c]pyridin-6-yl]-5-(oxan-4-yl)-6-[(pyrrolidin-1-yl)methyl]pyridin-2-amine]
< 100 nM | Cc1cc(Nc2cc3nc(-c4ccc(C#N)cc4)sc3cn2)nc(O[C@H]2CCNC2)c1 [Example 187, 4-(6-{[4-Methyl-6-(pyrrolidin-3-yloxy)pyridin-2-yl]amino}-[1,3]thiazolo[5,4-c]pyridin-2-yl)benzonitrile]
< 100 nM | Cc1cc(Nc2cc3nc(-c4cccnc4C)sc3cn2)nc(O[C@H]2CCNC2)c1 [Example 179, 4-Methyl-N-[2-(2-methylpyridin-3-yl)-[1,3]thiazolo[5,4-c]pyridin-6-yl]-6-[(3S)-pyrrolidin-3-yloxy]pyridin-2-amine]
< 100 nM | Cc1ccc(Nc2cc3nc(-c4cnn(CCO)c4)sc3cn2)nc1CN1CCCC1 [Example 40, 2-{4-[6-({5-Methyl-6-[(pyrrolidin-1-yl)methyl]pyridin-2-yl}amino)-[1,3]thiazolo[5,4-c]pyridin-2-yl]-1H-pyrazol-1-yl}ethan-1-ol]
< 100 nM | Cc1cccnc1-c1nc2cc(Nc3cccc(N4CCN(C)[C@@H](C)C4)n3)ncc2s1 [Example 94, 6-[(3S)-3,4-Dimethylpiperazin-1-yl]-N-[2-(3-methylpyridin-2-yl)-[1,3]thiazolo[5,4-c]pyridin-6-yl]pyridin-2-amine]

same assay, conditions: HPK1 ADP-Glo assay, low ATP (10 μM ATP, 2 nM HPK1); read-out: Biochemical Potency (low ATP)

IC50 | Structure (SMILES)
< 100 nM | CS(=O)(=O)Nc1cccc(-c2nc3cc(Nc4cccc(N5C[C@@H]6C[C@H]5CN6)n4)ncc3s2)c1 [Example 326]
< 100 nM | CN1C[C@@H]2C[C@H]1CN2c1nccc(Nc2cc3nc(-c4ccnc(N5CCC[C@@H](O)C5)c4)sc3cn2)n1 [Example 459]
< 100 nM | Cc1cccnc1-c1nc2cc(Nc3ccc4c(n3)[C@@H](N)CCC4)ncc2s1 [Example 583]
